In data set [1] the target is T1, recombinant purified human sEH (Homo sapiens, UniProt P34913).
T1 sequence (P34913 1-555): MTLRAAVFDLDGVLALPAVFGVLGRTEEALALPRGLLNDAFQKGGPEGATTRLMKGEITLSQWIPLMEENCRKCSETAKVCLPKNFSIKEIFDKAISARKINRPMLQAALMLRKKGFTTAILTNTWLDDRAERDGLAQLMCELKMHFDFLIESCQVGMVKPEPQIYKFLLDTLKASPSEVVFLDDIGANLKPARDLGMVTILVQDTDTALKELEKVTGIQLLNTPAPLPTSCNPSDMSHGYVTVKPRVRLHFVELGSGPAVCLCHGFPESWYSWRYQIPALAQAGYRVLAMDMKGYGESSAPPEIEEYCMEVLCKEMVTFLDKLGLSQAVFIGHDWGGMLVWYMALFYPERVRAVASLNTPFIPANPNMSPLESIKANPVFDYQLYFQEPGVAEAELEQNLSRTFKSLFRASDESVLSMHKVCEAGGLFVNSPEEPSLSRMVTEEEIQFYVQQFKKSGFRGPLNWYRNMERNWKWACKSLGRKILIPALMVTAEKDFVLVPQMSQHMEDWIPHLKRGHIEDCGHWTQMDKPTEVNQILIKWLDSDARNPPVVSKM
As to the kind of experiment: sEH inhibition, kinetic fluorescent assay with CMNPC substrate. The class given is biochemical.

The nature of data set [2]: Solubility in sodium phosphate buffer. The class given is physicochemical. Particulars: pH 7.4.

Values after ≈ are worked out from the molar mass of the structure shown. Some results are limits rather than exact numbers.

Turning to `O=C(NCc1cc(-c2cccc(F)c2)no1)NCC12CC3CC(CC(C3)C1)C2` [3g], the IC50 (in general, the concentration needed to halve the response being measured) in data set [1] was found to be 0.0137 ± 0.003 µM. Also, the solubility (in general, the dissolved amount per volume that the medium holds) in data set [2] lay within 75 to 100 µM (≈ 28.8 to 38.3 µg/mL). Turning to `CC12CC3CC(C)(C1)CC(NC(=O)NCc1cc(-c4ccco4)on1)(C3)C2` [4c], the IC50 in data set [1] is 0.0048 ± 0.0006 µM. For the same compound, the solubility in data set [2] lay within 75 to 100 µM (≈ 27.7 to 36.9 µg/mL). For the compound `COc1ccc(-c2cc(CNC(=O)NCC34CC5CC(CC(C5)C3)C4)no2)cc1` [3b], the solubility in data set [2] fell in the range of 100 to 125 µM (≈ 39.6 to 49.4 µg/mL). On the same count and under the same terms, next, `CC(C)c1cc(CNC(=O)NCC23CC4CC(CC(C4)C2)C3)on1` [3f]: 125 to 150 µM (≈ 41.4 to 49.7 µg/mL).

Take `Cc1cc(CNC(=O)NC23CC4CC(C)(CC(C)(C4)C2)C3)on1` [4d]: the IC50 in data set [1] was found to be 0.111 ± 0.0103 µM. Further, the fold less potent in data set [1] (relative to 3d) is 10 fold. The solubility in data set [2] lay in the range of 200 to 225 µM (≈ 63.5 to 71.4 µg/mL). As to `Cc1cc(CNC(=O)NCC23CC4CC(CC(C4)C2)C3)on1` [3d], the IC50 in data set [1] came out at 0.0099 ± 0.0029 µM. The compound further had a solubility in data set [2] of 450 to 475 µM (≈ 137 to 144 µg/mL). In data set [2], `Cc1ccc(-c2cc(CNC(=O)NCC34CC5CC(CC(C5)C3)C4)no2)cc1` [3a] returned a solubility of 75 to 100 µM (≈ 28.5 to 38 µg/mL).

Turning to `CC(C)c1cc(C2CCCN2C(=O)NCC23CC4CC(CC(C4)C2)C3)no1` (centres unmarked) [3k], the “fold less active than corresponding 1,3-disubstituted urea” value in data set [1] (relative to 3f) is listed as over 5 fold. Consider `COc1ccc(-c2cc(CNC(=O)NC34CC5CC(C)(CC(C)(C5)C3)C4)no2)cc1` [4b], for which the IC50 in data set [1] was found to be 0.018 ± 0.0029 µM. This compound registered a solubility in data set [2] of 25 to 50 µM (≈ 10.2 to 20.5 µg/mL). As to `O=C(NCc1cc(-c2ccco2)on1)NCC12CC3CC(CC(C3)C1)C2` [3c], the solubility in data set [2] is 75 to 100 µM (≈ 26.7 to 35.5 µg/mL). Regarding `CC12CC3CC(C)(C1)CC(NC(=O)NCc1cc(-c4cccc(F)c4)no1)(C3)C2` [4g], in data set [1], the IC50 was 0.0142 ± 0.0025 µM. In data set [2], this compound showed a solubility of 75 to 100 µM (≈ 29.8 to 39.7 µg/mL). In the same order, the values of `Cc1ccc(-c2cc(CNC(=O)NC34CC5CC(C)(CC(C)(C5)C3)C4)no2)cc1` [4a] are 0.0288 ± 0.0045 µM and 125 to 150 µM (≈ 49.2 to 59 µg/mL).

(Values after publication PMC4654407 (Bioorganic & medicinal chemistry letters, 2015).)
